Here are results for 10 molecules from ChEMBL document CHEMBL1201862, “PubChem BioAssay data set” (2004).

The source made the active and inactive calls. A value given as a limit tells only on which side of the number the result lay.

Among the targets are Cytochrome P450 2D6 (Homo sapiens, UniProt P10635); Cytochrome P450 2C9 (Homo sapiens, UniProt P11712); Cytochrome P450 3A4 (Homo sapiens, UniProt P08684).
In a further series the target is Cytochrome P450 2C19 (Homo sapiens, UniProt P33261). Kind of series: Cytochrome panel assay with activity outcomes. Panel member name: p450-cyp2c19 Compounds with AC50 equal or less than 10 uM are considered active. It is filed as functional. Conditions: read-out: AC50.
For the next series, the target named is SUMO E1/E2 (Homo sapiens, UniProt P63279+Q9UBE0+Q9UBT2). Kind of series: SAR analysis of SUMOylation using HTRF in an in-Vitro dose response assay. [Related pubchem assays (depositor defined):AID2006, AID2011, AID2018, AID2069, AID2658]. The series is classed as functional. (TR-FRET usually uses a lanthanide donor and a delayed reading to cut background.)

Series [1] is described as follows: Trypanosoma cruzi growth suppression in host cells – NIH3T3 host cells, beta-gal luminescence, confirmation (AID 2044).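 Note: intracellular parasites grown in NIH/3T3 mouse fibroblasts as host cells; luminescent beta-galactosidase reporter signal from transgenic T. cruzi replicating inside host cells; inhibitors lower the luminescence signal.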 The series is classed as functional, cell-based.
A short description of series [2]: cells. The series is classed as functional, cell-based.
A short description of series [3]: Counterscreen for AddAB inhibitors: absorbance-based bacterial cell-based high throughput dose response assay for inhibitors of bacterial viability. [Related pubchem assays (depositor defined):AID435030, AID449728, AID449731, AID488942, AID488955, AID488956]. The series is classed as functional. For orientation: The purpose of a counterscreen is to sort out artefacts and off-target activity.

A short description of series [4]: NIH3T3 cell viability loss – ATP luminescence, mouse fibroblasts, counter-screen, dose response (AID 2010).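 Note: cells exposed to compound for about 90 hours before reading.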 It is filed as functional, cell-based.
The subject of the next series is INS1. Kind of series: INS-1E survival protection against cytokine death – cell-based, luminescence, retest, dose response (AID 449756).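 Note: cell death triggered by IL-1 beta plus TNF-alpha plus IFN-gamma mixture; protective hits raise ATP signal compared with cytokine alone wells.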 Conditions: Rattus norvegicus. It is filed as functional.
A short description of series [5]: cells. The series is classed as functional, cell-based. This is another data set of the same source.
A further series has as its target T1, Exodeoxyribonuclease V (Escherichia coli (strain K12), UniProt P04993+P07648+P08394).
T1 sequence (P04993 whole entry): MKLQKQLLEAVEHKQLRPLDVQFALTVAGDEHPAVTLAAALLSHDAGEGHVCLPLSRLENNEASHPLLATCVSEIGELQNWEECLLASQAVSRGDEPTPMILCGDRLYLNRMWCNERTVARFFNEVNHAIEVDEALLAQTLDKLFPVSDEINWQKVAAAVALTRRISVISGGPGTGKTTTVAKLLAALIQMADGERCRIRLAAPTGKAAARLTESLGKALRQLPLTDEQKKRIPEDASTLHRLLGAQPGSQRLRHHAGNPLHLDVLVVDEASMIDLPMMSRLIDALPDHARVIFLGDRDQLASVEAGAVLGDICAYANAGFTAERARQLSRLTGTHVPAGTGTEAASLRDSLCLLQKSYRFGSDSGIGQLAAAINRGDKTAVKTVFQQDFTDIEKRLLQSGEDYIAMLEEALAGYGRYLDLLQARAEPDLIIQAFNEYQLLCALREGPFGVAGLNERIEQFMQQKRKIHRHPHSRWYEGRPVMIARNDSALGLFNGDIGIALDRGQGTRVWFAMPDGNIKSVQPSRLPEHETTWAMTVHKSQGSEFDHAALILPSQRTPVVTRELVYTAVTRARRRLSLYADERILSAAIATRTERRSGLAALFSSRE
T1 sequence (P07648 whole entry): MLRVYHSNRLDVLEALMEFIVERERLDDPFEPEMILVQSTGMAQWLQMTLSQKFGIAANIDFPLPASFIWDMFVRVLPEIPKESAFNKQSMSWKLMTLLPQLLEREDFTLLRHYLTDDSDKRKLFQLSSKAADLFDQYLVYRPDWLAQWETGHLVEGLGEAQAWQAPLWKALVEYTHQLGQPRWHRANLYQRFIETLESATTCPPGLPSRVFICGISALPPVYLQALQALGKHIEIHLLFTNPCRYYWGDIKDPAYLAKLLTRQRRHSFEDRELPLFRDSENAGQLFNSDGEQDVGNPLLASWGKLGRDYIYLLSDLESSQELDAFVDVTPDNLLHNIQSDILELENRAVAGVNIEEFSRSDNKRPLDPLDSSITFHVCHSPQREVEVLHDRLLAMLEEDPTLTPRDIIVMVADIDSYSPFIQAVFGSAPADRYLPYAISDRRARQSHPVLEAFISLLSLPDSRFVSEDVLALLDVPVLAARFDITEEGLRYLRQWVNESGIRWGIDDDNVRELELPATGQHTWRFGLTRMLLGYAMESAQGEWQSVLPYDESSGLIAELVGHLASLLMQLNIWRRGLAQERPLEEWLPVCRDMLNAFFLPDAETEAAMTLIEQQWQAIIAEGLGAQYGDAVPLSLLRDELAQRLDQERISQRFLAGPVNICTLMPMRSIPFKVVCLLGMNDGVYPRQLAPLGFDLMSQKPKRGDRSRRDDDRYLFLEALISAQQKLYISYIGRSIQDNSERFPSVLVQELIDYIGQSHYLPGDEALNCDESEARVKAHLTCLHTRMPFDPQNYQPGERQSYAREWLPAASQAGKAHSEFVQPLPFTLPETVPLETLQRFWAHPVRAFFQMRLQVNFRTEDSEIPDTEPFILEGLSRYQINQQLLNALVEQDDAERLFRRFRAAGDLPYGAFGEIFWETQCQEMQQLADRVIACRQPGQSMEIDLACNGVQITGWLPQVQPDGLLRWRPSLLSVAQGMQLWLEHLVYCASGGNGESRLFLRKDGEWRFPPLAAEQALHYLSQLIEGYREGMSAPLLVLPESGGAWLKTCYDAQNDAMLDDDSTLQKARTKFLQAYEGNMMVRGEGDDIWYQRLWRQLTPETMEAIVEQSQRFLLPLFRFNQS
T1 sequence (P08394 whole entry): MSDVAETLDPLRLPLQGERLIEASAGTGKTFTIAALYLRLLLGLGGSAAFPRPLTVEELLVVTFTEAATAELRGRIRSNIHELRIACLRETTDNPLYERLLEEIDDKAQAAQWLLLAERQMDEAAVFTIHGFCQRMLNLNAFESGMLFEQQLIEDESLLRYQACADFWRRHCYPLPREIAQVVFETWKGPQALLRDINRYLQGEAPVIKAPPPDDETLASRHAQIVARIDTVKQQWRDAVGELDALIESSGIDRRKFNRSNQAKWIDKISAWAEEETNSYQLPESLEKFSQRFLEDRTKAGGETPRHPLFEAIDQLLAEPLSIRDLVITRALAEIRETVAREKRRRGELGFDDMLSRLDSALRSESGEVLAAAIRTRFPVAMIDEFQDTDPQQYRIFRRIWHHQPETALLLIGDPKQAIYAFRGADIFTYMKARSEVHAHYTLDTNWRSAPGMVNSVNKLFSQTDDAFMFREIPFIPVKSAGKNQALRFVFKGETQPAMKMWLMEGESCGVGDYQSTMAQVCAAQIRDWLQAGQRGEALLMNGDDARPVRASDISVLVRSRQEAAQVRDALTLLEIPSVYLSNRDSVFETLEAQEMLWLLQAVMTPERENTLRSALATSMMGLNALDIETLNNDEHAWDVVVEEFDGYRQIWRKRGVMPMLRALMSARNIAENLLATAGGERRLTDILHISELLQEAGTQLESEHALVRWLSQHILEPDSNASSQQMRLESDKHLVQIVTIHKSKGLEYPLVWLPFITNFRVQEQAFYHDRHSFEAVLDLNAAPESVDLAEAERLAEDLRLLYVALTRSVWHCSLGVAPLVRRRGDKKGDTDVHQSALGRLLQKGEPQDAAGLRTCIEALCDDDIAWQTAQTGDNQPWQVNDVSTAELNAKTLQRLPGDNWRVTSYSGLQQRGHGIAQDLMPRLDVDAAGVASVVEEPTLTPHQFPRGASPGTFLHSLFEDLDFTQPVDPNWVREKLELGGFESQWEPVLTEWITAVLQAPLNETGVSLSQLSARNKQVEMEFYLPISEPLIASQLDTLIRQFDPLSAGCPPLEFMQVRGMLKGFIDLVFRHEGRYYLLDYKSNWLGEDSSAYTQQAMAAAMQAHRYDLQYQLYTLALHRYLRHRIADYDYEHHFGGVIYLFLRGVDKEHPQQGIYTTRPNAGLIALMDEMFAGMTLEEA
Kind of series: RecBCD inhibition via phage-restricted bacterial growth – absorbance, V66 E. coli, mutant T4 phage, counter-screen for AddAB inhibitor project, dose response (AID 492957). It is filed as functional, cell-based, Escherichia coli str. K-12 substr. MG1655.

The target in series [6] is Delta-type opioid receptor (Homo sapiens, UniProt P41143). Kind of series: Counterscreen for agonists of heterodimerization of the mu 1 (OPRM1) and delta 1 (OPRD1) opioid receptors: Luminescence-based cell-based high throughput dose response assay to identify agonists of OPRD1 homodimerization. [Related pubchem assays (depositor defined):AID504326, AID504355, AID504692, AID504904, AID504905]. The series is classed as functional.

The target of series [7] is 5-hydroxytryptamine receptor 5A (Homo sapiens, UniProt P47898). Kind of series: Counterscreen for agonists of OPRM1-OPRD1 heterodimerization: luminescence-based cell-based high throughput dose response assay to identify agonists of 5-hydroxytryptamine (serotonin) 5A receptor (HTR5A). [Related pubchem assays (depositor defined):AID504326, AID504355, AID504692, AID504904, AID504905]. The series is classed as functional.

The next series addresses Mu-type opioid receptor (Homo sapiens, UniProt P35372). Kind of series: Counterscreen for agonists of heterodimerization of the mu 1 (OPRM1) and delta 1 (OPRD1) opioid receptors: Luminescence-based cell-based high throughput dose response assay to identify agonists of OPRM1 homodimerization. It is filed as functional.
Series [8] has as its target T2, Short transient receptor potential channel 4 (Mus musculus, UniProt Q9QUQ5).
T2 sequence (Q9QUQ5 whole entry): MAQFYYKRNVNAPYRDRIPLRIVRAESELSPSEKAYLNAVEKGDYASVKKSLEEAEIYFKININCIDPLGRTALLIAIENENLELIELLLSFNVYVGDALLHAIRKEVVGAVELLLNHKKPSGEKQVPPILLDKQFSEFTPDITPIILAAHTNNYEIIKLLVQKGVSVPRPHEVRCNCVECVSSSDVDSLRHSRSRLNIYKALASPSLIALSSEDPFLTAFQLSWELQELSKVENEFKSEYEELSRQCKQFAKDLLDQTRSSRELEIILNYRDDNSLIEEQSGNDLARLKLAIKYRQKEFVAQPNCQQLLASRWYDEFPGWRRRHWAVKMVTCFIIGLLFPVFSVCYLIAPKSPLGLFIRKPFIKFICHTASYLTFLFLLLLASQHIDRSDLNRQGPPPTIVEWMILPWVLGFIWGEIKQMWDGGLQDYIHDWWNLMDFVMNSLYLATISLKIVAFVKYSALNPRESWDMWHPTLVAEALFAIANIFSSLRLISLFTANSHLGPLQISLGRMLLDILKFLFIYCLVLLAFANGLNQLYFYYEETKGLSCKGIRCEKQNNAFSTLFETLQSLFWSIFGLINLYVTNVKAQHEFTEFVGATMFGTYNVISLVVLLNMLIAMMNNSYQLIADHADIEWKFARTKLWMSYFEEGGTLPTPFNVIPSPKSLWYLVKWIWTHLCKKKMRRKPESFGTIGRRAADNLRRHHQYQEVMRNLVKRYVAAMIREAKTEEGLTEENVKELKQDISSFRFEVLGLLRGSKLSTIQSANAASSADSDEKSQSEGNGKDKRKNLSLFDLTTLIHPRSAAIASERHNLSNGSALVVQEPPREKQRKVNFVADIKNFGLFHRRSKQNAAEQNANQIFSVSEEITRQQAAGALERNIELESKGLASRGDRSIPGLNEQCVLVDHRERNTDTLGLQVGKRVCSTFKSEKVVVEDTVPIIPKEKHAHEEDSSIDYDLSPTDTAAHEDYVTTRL
Kind of series: calcium entry via TRPC4 opening agents – cell-based, HEK293 TRPC4/mu-opioid, Fluo-4 calcium, dose response (AID 434937). The series is classed as functional.

Series [9] relates to HEK293. Kind of series: cells. Conditions: Homo sapiens.
Series [10] deals with HEK293. Kind of series: cells. As to conditions: Homo sapiens. The source holds these as a separate data set.

Chain of SUMO E1/E2 (Q9UBE0 whole entry): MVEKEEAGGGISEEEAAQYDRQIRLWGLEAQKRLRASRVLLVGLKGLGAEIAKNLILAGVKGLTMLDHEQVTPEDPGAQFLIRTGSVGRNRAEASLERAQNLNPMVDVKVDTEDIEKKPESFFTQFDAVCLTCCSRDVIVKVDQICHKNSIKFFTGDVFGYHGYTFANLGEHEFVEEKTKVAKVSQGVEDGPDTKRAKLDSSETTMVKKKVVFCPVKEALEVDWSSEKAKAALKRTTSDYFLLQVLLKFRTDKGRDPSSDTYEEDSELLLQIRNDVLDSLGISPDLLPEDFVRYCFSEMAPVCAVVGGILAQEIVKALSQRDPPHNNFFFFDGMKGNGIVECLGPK
Chain of SUMO E1/E2 (Q9UBT2 whole entry): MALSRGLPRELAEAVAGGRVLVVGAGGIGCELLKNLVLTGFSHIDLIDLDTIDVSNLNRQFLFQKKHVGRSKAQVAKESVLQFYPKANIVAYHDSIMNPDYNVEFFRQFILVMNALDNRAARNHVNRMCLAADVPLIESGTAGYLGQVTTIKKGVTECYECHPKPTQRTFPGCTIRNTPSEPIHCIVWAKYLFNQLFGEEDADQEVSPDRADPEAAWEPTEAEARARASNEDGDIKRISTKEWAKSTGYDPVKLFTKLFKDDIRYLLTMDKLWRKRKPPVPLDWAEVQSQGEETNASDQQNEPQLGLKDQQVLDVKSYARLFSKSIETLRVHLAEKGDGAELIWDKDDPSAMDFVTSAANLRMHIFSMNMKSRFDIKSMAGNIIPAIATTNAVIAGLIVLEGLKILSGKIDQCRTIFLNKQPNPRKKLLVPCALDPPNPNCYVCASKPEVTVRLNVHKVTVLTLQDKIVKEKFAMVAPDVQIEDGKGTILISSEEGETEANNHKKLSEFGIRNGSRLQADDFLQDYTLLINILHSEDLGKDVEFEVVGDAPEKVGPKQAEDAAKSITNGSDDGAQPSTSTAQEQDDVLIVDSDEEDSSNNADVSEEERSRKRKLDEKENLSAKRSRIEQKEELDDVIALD
Chain of SUMO E1/E2 (P63279 whole entry): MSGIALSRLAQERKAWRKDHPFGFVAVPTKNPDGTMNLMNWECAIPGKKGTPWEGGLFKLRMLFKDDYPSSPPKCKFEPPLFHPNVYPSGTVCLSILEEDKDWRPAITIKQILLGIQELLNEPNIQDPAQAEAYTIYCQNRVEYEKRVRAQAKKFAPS
Chain of 5-hydroxytryptamine receptor 5A (P47898 whole entry): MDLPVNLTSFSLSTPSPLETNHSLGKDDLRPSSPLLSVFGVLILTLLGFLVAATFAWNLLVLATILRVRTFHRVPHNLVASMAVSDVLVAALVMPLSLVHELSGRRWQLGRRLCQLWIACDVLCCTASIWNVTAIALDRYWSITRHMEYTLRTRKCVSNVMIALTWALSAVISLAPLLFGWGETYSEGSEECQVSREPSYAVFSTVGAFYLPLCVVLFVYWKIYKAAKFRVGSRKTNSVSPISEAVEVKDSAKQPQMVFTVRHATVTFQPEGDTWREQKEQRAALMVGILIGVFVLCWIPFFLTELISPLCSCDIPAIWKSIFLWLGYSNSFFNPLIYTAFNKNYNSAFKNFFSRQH
Chain of Cytochrome P450 2D6 (P10635 whole entry): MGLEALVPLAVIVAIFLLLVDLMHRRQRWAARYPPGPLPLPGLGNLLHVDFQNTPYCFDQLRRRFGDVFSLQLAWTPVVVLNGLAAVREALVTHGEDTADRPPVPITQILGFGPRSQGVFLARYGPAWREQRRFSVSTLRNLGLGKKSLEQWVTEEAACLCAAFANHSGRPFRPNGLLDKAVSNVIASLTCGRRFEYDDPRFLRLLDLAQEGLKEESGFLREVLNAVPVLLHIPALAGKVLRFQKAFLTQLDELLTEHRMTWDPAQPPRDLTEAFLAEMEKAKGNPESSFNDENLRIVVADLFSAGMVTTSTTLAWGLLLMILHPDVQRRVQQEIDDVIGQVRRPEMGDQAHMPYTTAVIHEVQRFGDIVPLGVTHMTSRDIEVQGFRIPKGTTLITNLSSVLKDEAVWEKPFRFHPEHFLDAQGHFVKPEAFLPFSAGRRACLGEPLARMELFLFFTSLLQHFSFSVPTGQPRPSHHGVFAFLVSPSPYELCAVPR
Chain of Delta-type opioid receptor (P41143 whole entry): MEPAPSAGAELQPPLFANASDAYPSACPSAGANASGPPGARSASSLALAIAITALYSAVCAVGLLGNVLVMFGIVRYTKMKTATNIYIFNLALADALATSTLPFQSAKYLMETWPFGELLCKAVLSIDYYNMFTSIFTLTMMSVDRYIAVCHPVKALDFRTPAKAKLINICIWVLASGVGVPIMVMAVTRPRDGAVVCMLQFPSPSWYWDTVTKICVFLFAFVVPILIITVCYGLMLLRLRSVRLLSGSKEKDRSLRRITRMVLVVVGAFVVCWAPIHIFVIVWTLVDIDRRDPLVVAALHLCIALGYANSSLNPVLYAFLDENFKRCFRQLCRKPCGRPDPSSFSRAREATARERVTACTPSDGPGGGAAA
Chain of Mu-type opioid receptor (P35372 whole entry): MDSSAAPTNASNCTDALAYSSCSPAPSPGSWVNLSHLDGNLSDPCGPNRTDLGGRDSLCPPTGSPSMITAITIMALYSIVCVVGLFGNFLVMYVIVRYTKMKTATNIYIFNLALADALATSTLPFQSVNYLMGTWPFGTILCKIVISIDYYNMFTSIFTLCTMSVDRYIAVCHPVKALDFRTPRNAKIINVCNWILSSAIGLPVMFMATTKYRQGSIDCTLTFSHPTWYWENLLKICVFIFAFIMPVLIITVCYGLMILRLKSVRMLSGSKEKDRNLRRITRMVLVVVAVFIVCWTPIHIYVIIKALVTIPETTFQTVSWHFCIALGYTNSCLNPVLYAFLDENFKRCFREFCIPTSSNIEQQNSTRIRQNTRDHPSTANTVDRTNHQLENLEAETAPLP
Chain of Cytochrome P450 2C19 (P33261 whole entry): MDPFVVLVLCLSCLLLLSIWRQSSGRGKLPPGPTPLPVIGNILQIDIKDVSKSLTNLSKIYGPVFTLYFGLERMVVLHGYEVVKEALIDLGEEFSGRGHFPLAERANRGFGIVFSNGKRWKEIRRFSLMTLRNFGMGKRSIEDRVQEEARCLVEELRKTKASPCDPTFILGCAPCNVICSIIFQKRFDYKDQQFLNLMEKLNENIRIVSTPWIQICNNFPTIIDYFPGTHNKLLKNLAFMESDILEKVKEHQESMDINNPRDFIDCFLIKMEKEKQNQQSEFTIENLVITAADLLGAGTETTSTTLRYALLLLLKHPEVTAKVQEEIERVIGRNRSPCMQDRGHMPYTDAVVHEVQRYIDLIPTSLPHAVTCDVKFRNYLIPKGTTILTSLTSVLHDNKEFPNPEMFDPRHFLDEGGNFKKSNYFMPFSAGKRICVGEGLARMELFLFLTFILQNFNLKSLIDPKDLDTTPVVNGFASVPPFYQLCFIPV
Chain of Cytochrome P450 2C9 (P11712 whole entry): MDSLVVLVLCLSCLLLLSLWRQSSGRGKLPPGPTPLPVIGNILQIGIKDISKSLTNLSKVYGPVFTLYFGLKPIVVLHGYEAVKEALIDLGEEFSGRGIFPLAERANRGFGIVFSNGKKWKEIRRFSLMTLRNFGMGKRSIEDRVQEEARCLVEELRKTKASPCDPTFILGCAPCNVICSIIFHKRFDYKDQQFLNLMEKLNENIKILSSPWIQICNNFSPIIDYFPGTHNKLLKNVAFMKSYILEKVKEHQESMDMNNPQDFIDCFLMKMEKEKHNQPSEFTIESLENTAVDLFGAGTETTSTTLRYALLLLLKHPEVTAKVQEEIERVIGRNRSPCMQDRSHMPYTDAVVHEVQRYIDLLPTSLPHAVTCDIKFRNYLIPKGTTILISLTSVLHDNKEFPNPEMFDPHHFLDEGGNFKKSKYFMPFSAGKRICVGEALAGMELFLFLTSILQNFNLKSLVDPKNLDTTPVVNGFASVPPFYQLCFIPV
Chain of Cytochrome P450 3A4 (P08684 whole entry): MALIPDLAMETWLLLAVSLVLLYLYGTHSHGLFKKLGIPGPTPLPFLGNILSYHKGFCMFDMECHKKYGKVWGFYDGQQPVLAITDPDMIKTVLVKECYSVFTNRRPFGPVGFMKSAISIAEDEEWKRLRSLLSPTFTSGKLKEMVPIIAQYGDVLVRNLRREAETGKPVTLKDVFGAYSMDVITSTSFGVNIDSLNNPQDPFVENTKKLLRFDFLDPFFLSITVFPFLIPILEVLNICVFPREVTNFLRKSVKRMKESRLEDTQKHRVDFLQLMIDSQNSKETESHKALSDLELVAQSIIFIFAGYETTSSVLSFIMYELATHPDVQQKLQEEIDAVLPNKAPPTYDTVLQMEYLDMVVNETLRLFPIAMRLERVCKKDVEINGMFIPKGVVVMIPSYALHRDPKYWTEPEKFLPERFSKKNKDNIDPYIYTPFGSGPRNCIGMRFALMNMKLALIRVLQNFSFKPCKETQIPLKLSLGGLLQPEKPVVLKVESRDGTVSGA

`NC(=O)/C(=N\O)c1ccccc1`: the AC50 on Cytochrome P450 2C19 is 0.00562 µM (inconclusive); on Cytochrome P450 2D6, “inconclusive”.
As for `Cc1ccc(C=Nc2ccccc2C(N)=O)s1`, the IC50 on SUMO E1/E2 is 22.2 µM (active).
On to `Cc1cc(N/N=C/c2ccc(O)cc2O)nc(-c2ccccc2O)n1`, for which the EC50 was 1.16 µM (active) in series [1], 8.62 µM (active) in the series “cells [2]”, 4.8 µM (active) in series [4] and > 350 µM (not active) in “cells [5]”. Moreover, the IC50 (in [3]; on Exodeoxyribonuclease V) was > 119 µM (inactive) each time. In addition, the AC50 with INS1 was 0.734 µM (active).
Turning to `O=C(NC(NC(=S)Nc1ccc(Cl)cc1)C(Cl)(Cl)Cl)c1ccco1` (configuration not stated), the IC50 (in series [3]; at Exodeoxyribonuclease V) was > 119 µM (inactive) in each case.
Turning to `CCNS(=O)(=O)c1ccc(NC(=O)Nc2ccc3c(c2)OCO3)cc1`, the EC50 was > 92.5 µM (inactive) in series [6], > 92.5 µM (inactive) in series [7] and 42.8 µM (inactive) on Mu-type opioid receptor.
As to `Cc1c(Br)c([N+](=O)[O-])nn1C(C)C(=O)NCc1ccco1` (configuration not stated), the IC50 (in [3]; on Exodeoxyribonuclease V) was > 119 µM (inactive) each time.
Turning to `CCOC(=O)c1c(C)c(C(=O)NCCN2CCOCC2)c(C)n1CC`, the AC50 result at Cytochrome P450 2C9 is “inconclusive”; on Cytochrome P450 2D6 it was “inconclusive”; at Cytochrome P450 3A4, 25.1 µM (inconclusive).
In the case of `CN(C)C(CN=C(S)Nc1cccc(Cl)c1)c1ccccc1` (configuration not stated), the EC50 was 11.5 µM (inactive) in series [6], > 92.5 µM (inactive) in series [7], 4.64 µM (active) on Mu-type opioid receptor and 0.596 µM (active) in series [8].
With `Fc1ccc(C2Nc3ccccc3C3C=CCC32)cc1` (configuration not stated), on SUMO E1/E2, the IC50 is > 100 µM (inactive).
Turning to `CN(C)C(=S)N=c1ssc(=S)n1Cc1ccco1`, the EC50 with HEK293 [9] and with HEK293 [10] was > 59.6 µM (inactive) in each case.

Broadly, the AC50 is the concentration at which the activity in the assay is half-maximal. By IC50 is commonly meant the concentration at which inhibition is half-maximal. Usually EC50 stands for the concentration at which the effect is half-maximal.
